Eleven molecules from patent US20260035384A1, “COMPOUND CONTAINING CYCLOHEXYL” (CHIA TAI TIANQING PHARMACEUTICAL GROUP CO., LTD., priority 2022, published 2026) can be followed below.

One series deals with LNCaP cells. Description: Assay on inhibitory activity for LNCaP cell proliferation (CCK-8). The class given is cell-based. The following applies: Homo sapiens, 168 h incubation. The procedure: (§1) LNCaP cells in a good growth state were taken, washed with PBS, digested with pancreatin, and added with 2% CSS—FBS phenol red-free 1640 complete medium to terminate the digestion. The cells were collected by using a centrifuge tube, adjusted to a cell density of 1×10^5 cells/mL, and seeded in a 96-well plate (100 μL/well). Meanwhile, compounds were added using a nanoliter pipettor such that the final concentrations of the compounds were 10000 nM-0.61 nM. Two duplicate wells were set for each concentration, and meanwhile, a control was set. After another 168 h of incubation in the cell incubator, the detection reagent CCK-8 (manufacturer: Dojindo, 10 μL/well) was added.

A further series in a line: Mouse pharmacokinetics. The class given is in vivo, ICR mice. The following applies: ICR, mouse, plasma; for AUC: read-out: AUC. Here is the method: ICR mice weighing 18-22 g were randomized into groups of 9 after 3-5 days of acclimatization, and then intragastrically given the test compound solution at a dose of 10 mg/kg and intravenously injected with the test compound solution at a dose of 1 mg/kg.
Blood sampling time points for the intragastrical administration group were 15 min, 0.5 h, 1 h, 2 h, 3 h, 4 h, 6 h, 8 h, 10 h, and 24 h, and blood sampling time points for the intravenous injection administration group were […], 15 min, 0.5 h, 1 h, 2 h, 4 h, 6 h, 8 h, 10 h, and 24 h; blood was collected from the orbit to prepare plasma samples to be tested. 30 μL of each of the plasma samples to be tested and a standard curve sample were taken, and an acetonitrile solution containing an internal standard was added. Supernatants were obtained by protein precipitation, diluted, and then assayed by LC/MS/MS. Pharmacokinetic parameters were fitted using a non-compartmental model (see Table 6).

The target of a further series is T1, AR in LNCaP cells (Homo sapiens, UniProt P10275, T878A).
T1 construct: Assay on Degradation Activity for AR in LNCaP Cells; endogenous in cells; host or cells: LNCaP cells
T1 sequence (P10275 1-920 T878A): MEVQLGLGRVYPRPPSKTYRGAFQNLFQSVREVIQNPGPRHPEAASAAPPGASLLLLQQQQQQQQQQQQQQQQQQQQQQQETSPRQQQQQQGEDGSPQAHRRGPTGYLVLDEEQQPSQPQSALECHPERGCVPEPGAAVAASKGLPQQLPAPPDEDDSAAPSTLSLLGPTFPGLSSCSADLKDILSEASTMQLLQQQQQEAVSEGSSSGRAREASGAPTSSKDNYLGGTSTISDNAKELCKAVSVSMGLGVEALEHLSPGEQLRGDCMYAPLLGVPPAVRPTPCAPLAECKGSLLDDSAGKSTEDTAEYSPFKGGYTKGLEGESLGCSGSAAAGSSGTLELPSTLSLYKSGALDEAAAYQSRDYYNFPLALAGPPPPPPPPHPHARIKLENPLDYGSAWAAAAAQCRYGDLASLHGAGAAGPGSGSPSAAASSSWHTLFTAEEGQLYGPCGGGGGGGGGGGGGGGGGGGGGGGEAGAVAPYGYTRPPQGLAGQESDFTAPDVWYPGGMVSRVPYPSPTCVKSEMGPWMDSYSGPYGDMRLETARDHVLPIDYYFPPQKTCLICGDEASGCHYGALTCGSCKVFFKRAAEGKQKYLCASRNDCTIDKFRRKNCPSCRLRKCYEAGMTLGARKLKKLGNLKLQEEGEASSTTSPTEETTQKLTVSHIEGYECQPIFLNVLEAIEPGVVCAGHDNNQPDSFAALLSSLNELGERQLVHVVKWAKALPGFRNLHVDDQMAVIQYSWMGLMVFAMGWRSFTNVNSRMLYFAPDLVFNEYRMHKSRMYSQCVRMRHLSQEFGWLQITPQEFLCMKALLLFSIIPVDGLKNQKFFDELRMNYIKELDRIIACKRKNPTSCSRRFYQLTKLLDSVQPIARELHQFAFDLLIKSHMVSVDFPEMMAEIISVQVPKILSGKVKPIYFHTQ
As to the kind of experiment: Assay on degradation activity for AR in LNCaP cells (HTRF human androgen receptor detection kit). Format: cell-based. The following applies: 24 h incubation. Here is the method:
(§2) The detection was carried out using the HTRF HUMAN ANDROGEN RECEPTOR DETECTION KIT (cisbio, 64ANDRPEG), 4× Supplemented Lysis buffer was prepared using the Blocking reagent stock solution (100×) and Lysis buffer stock solution (4×), and 1× Supplemented Lysis buffer was prepared using the 4× Supplemented Lysis buffer and ddH2O. Premixed antibody solutions were prepared using Detection buffer, Androgen Receptor Eu Cryptate antibody, and Androgen Receptor d2 antibody.
(§3) LNCaP cells in a good growth state were taken, washed with PBS, digested with pancreatin, and added with 2% CSS—FBS phenol red-free 1640 complete medium to terminate the digestion. The cells were collected by using a centrifuge tube, adjusted to a cell density of 1×10^6 cells/mL, and seeded in a 96-well plate (100 μL/well). The cells were incubated overnight in a cell incubator. Compounds were added using a nanoliter pipettor such that the final concentrations of the compounds were 500 nM-0.488 nM. Two duplicate wells were set for each concentration, and meanwhile, a control was set. After another 24 h of incubation in the cell incubator, the medium was pipetted out, the 1× Supplemented Lysis buffer was added at 40 μL/well to lyse the cells. After the cells were oscillated for 40 min at room temperature, 16 μL of the cell lysate was added to a 384-well plate, the Premixed antibody solutions were added at 4 μL/well, and the mixture was left to stand at 25° C. for 2 h. Fluorescence values were detected at 665 nm/620 nm using an Envision microplate reader, the four-parameter analysis was performed, the dose-response curves were fit, and DC50 (the concentration of the drug when the degradation rate reaches 50%) and Dmax (the maximum degradation rate) were calculated.
(In general: Time-resolved FRET reads energy transfer from a long-lived donor to a nearby acceptor.)

A further series relates to VCaP cells. Description: Assay on inhibitory activity for VCaP cell proliferation (CCK-8). Format: cell-based. The following applies: Homo sapiens, 168 h incubation. The procedure: as §1, with “2.1 Assay on inhibitory activity for VCaP cell proliferation VCaP” for “LNCaP”, “5%” for “2%”, “DMEM” for “1640”
The next series addresses T2, AR in VCaP cells (Homo sapiens, UniProt P10275).
T2 construct: Assay on Degradation Activity for AR in VCaP Cells; endogenous in cells; host or cells: VCaP cells
T2 sequence (P10275 1-920): T1 sequence (P10275 1-920 T878A) with A878T
Description: Assay on degradation activity for AR in VCaP cells (HTRF human androgen receptor detection kit). The class given is cell-based. Particulars: 24 h incubation. The procedure: as §2
as §3, with “VCaP” for “LNCaP”, “DMEM” for “1640”, “µL/well).” for “μL/well).”, “1000 nM-0.977” for “500 nM-0.488”

[1] abbreviates: po, 10 mg/kg, Mouse i.g. 10 mpk.

The structures appear in SMILES notation. Residue numbers refer to the chain shown, from its start. Read-outs that look alike come from different tables or passages of the source.

As usually defined, the IC50 is the midpoint of a concentration-inhibition curve. Read a low IC50 as greater potency in that assay. What is called clearance is a measure of how efficiently the substance is removed, as volume per time. Broadly, the half-life is how long it takes for the measured level to halve. High values mean slow decline, low ones rapid decline. By AUC is commonly meant the area under the concentration-time curve, a measure of exposure. A word on the bioavailability: it is the share of a dose that reaches the circulation, judged against a reference dose that is usually intravenous. Usually Cmax stands for the peak of the concentration-time curve. As usually defined, the DC50 is the midpoint of the concentration-degradation curve. A word on the Dmax: it is the greatest extent of degradation seen. The low end stands for a partial loss of target, the high end for a fuller loss of target. Turning to `N#Cc1ccc(O[C@H]2CC[C@H](NC(=O)c3ccc(N4CCC(CN5CCc6c(ccc7c(C8CCC(=O)NC8=O)noc67)C5)CC4)nn3)CC2)cc1Cl` (stereo partly shown) [Compound 19], in the series on LNCaP cells, the IC50 is less than 1000 nM. In addition, in “Mouse pharmacokinetics” (iv, 1 mg/kg, Mouse i.v. 1 mpk), the clearance was 5.7 mL/min/kg, the half-life was 7.4 h and the exposure (AUC) came to 2600 ng·h/mL. In “Mouse pharmacokinetics” (setting [1]), the half-life is 49.9 h and the area under the curve (AUC) amounted to 10800 ng·h/mL. The same molecule showed a bioavailability in the series “Mouse pharmacokinetics” (po, 10 mg/kg, Mouse i.g. 10 mpk vs i.v. 1 mpk) of 41.6%. In the series “Mouse pharmacokinetics” (po, 10 mg/kg, Mouse i.g. 10 mpk, read-out: Cmax), the peak concentration (Cmax) turned out to be 562 ng/mL. The molecule further displayed a DC50 at AR in LNCaP cells (HTRF) not above 20 nM. On AR in LNCaP cells (maximum degradation rate), the maximal degradation (Dmax) is more than 80%.
Consider `CN(c1ccc(C#N)c(Cl)c1)[C@H]1CC[C@H](NC(=O)c2ccc(N3CCC(CN4CCc5c(ccc6c(C7CCC(=O)NC7=O)noc56)C4)CC3)cc2)CC1` (stereo partly shown) [Compound 58], for which the IC50 with LNCaP cells was less than 1000 nM; in the series on VCaP cells, less than 10 nM. On AR in VCaP cells, this molecule returned a DC50 not above 1 nM.
`CN(c1ccc(C#N)c(Cl)c1)[C@H]1CC[C@H](NC(=O)c2ccc(N3CCN(CC4Cc5ccc6c(C7CCC(=O)NC7=O)noc6c5C4)CC3)cc2)CC1` (stereo partly shown) [Compound 71] yielded a DC50 at AR in VCaP cells not above 1 nM.
The molecule `N#Cc1ccc(O[C@H]2CC[C@H](NC(=O)c3ccc(N4CCC(N5CC(CN6Cc7ccc8c(C9CCC(=O)NC9=O)noc8c7C6)C5)CC4)cc3)CC2)cc1Cl` (stereo partly shown) [Compound 80] came in with a 50% degradation concentration (DC50) at AR in VCaP cells not above 1 nM.
Same read-out and setting: the value for `N#Cc1ccc(O[C@H]2CC[C@H](NC(=O)c3ccc(N4CCC(N5CC(CN6CCc7ccc8c(C9CCC(=O)NC9=O)noc8c7C6)C5)CC4)cc3)CC2)cc1Cl` (stereo partly shown) [Compound 81] was not above 1 nM.
`N#Cc1ccc(O[C@H]2CC[C@H](NC(=O)c3ccc(N4CCC(N5CC(CN6CCc7c(ccc8c(C9CCC(=O)NC9=O)noc78)C6)C5)CC4)cc3)CC2)cc1Cl` (stereo partly shown) [Compound 82]: the IC50 in the series with LNCaP cells is less than 1000 nM. Moreover, on AR in VCaP cells, the half-maximal degradation concentration (DC50) is not above 1 nM.
`N#Cc1ccc(O[C@H]2CC[C@H](NC(=O)c3ccc(N4CCC(N5CCC(CN6Cc7ccc8c(C9CCC(=O)NC9=O)noc8c7C6)CC5)CC4)nn3)CC2)cc1Cl` (stereo partly shown) [Compound 86] had a DC50 at AR in VCaP cells not above 1 nM.
The molecule `N#Cc1ccc(O[C@H]2CC[C@H](NC(=O)c3ccc(N4CCC(N5CCC(CN6CCc7ccc8c(C9CCC(=O)NC9=O)noc8c7C6)CC5)CC4)nn3)CC2)cc1Cl` (stereo partly shown) [Compound 87] came in with a half-maximal degradation concentration (DC50) on AR in VCaP cells not above 1 nM.
Consider `N#Cc1ccc(O[C@H]2CC[C@H](NC(=O)c3ccc(N4CCC(N5CCC(CN6CCc7c(ccc8c(C9CCC(=O)NC9=O)noc78)C6)CC5)CC4)nn3)CC2)cc1Cl` (stereo partly shown) [Compound 88], for which the IC50 in the series with LNCaP cells is less than 1000 nM. Further, the DC50 at AR in VCaP cells was not above 1 nM.
On to `N#Cc1ccc(O[C@H]2CC[C@H](NC(=O)c3ccc(N4CCC(N5CC(CN6CCc7c(ccc8c(C9CCC(=O)NC9=O)noc78)C6)C5)CC4)nn3)CC2)cc1Cl` (stereo partly shown) [Compound 92], for which the IC50 in the series on LNCaP cells was less than 1000 nM; in the series with VCaP cells (VCaP, 168 h), less than 10 nM. The same molecule gave a DC50 at AR in VCaP cells not above 1 nM.
Turning to `N#Cc1ccc(O[C@H]2CC[C@H](NC(=O)c3ccc(N4CCC(N5CC(N6CCc7ccc8c(C9CCC(=O)NC9=O)noc8c7CC6)C5)CC4)nn3)CC2)cc1Cl` (stereo partly shown) [Compound 95], the values for the IC50 in the series with LNCaP cells and with VCaP cells were less than 1000 nM and less than 100 nM, respectively. Further, the 50% degradation concentration (DC50) on AR in VCaP cells is not above 1 nM.
